Assay results reported in patent publication US8552208B2, “Analogs of tetramic acid” (University of Tennesseee Research Foundation, priority 2007, dated 2013).
In brackets after ≈: the same amount, converted by molar mass. Where two headings read alike, the source gives them in different places.

Assays:
[1] = tested on: Mycobacterium tuberculosis H37 Rv; assay: Antibacterial activity assay (MIC, broth dilution); type: cell-based; conditions: H37RV, 168 h; Mycobacterium tuberculosis H37 Rv; […]; read-out: MIC, TB
[2] = tested on: Bacillus anthracis Sterne 34F2; assay: microbe, parasite or virus in culture; type: cell-based; conditions: STERNE34F2, read-out: MIC, BA
[3] = tested on: Bacillus subtilis ATCC 23857; assay: Antibacterial activity assay (MIC, broth dilution); type: cell-based; conditions: ATCC23857; Bacillus subtilis ATCC 23857; read-out: MIC, BS
[4] = tested on: Streptococcus pneumoniae DAW30EC; assay: Antibacterial activity assay (MIC, broth dilution); type: cell-based; conditions: Streptococcus pneumoniae DAW30EC; read-out: MIC, SPn
[5] = tested on: Enterococcus faecalis ATCC 33186; assay: Antibacterial activity assay (MIC, broth dilution); type: cell-based; conditions: ATCC33186; Enterococcus faecalis ATCC 33186; read-out: MIC, EF
[6] = tested on: Methicillin Resistant Staphylococcus aureus ATCC 33591; assay: Antibacterial activity assay (MIC, broth dilution); type: cell-based; conditions: ATCC 33591 / MRSA, read-out: MIC, MRSA
[7] = tested on: Methicillin sensitive Staphylococcus aureus 8325 ATCC 35556; assay: Antibacterial activity assay (MIC, broth dilution); type: cell-based; conditions: ATCC 35556 / MSSA; Methicillin sensitive Staphylococcus aureus 8325 ATCC 35556; read-out: MIC, MSSA
[8] = tested on: Propionibacterium acnes ATCC 6919; assay: Antibacterial activity assay (MIC, broth dilution); type: cell-based; conditions: Cutibacterium acnes, ATCC6919; Propionibacterium acnes ATCC 6919; read-out: MIC, PA
[9] = tested on: Streptococcus pyogenes ATCC 700294; assay: Antibacterial activity assay (MIC, broth dilution); type: cell-based; conditions: ATCC700294; Streptococcus pyogenes ATCC 700294; read-out: MIC, SP
Cytotoxicity assay (MTT) = type: cell-based, monkey; conditions: monkey, Vero cells, 72 hours, MTT, read-out: IC50 (Cytotoxicity): Concentration which reduces viability of Vero kidney cells by 50%
Procedure: (§1) Cytotoxicity assays of drugs of Formula I of Example 3 and of Formula II of Example 5 were performed using the Vero monkey kidney cell line (ATCC, CCL-81). Vero cells were grown in tissue culture flasks in Dulbecco's Modified Eagle's Medium (ATCC) supplemented with 10% fetal bovine serum and maintained in a humidified incubator (37° C., 5% CO2). Cells were removed with a cell scraper, collected by centrifugation and then suspended in fresh medium at ˜10^6 cells/mL. The cell suspensions were dispensed into 96-well microtiter plates (100 μl/well) and incubated for 18 hours at 37° C. before being used for cytotoxicity assays. Test compounds were subsequently added at concentrations ranging from 400-0.024 μg/mL and 0.1% vol/vol of Triton-X 100, which causes 100% death of cells, was included as a control. After incubating cells and compounds for 72 hours in humid air (37° C., 5% CO2) the cytopathic effects of compounds were determined using the MTT Cell Proliferation Assay (ATCC, Cat No. 30-1010K). The MTT solution reagent (10 μl) was added to each well and plates incubated at 37° C. until sufficient purple color development occurred in cells (3 hours). After detergent cell lysis, the purple formazan product was measured at 570 nm in a Synergy HT Biotek microplate reader. IC50 data was obtained from dose response curves plotted from percentage activity versus log10 concentration using Graphpad prism 5.

[10] = tested on: Vero monkey kidney cell line (ATCC, CCL-81); assay: Cytotoxicity assay (MTT); type: cell-based
Procedure: as §1

[11] = IC50 divided by MIC against S. aureus 8325
[12] = Vero monkey kidney cells (ATCC CCL-81)

SMILES	MIC [1] [µg/mL]	MIC [2] [µg/mL]	MIC [3] [µg/mL]	MIC [4] [µg/mL]	MIC [5] [µg/mL]	MIC [6] [µg/mL]	MIC [7] [µg/mL]	MIC [8] [µg/mL]	MIC [9] [µg/mL]	IC50 at 72 h (Cytotoxicity assay (MTT)) [µg/mL]	IC50/MIC = Selectivity (therapeutic) index [10, 11]	IC50/MIC = Selectivity (therapeutic) index ([10]; IC50 divided by MIC against E. faecalis (12p only))	IC50 at 72 h (Cytotoxicity assay (MTT); [12]) [µg/mL]
CCC(C)[C@H]1C(O)=C(C#N)C(=O)N1Cc1ccccc1 (stereo partly drawn) [Compound 12a, (S)-1-benzyl-5-sec-butyl-4-hydroxy-2-oxo-2,5-dihydro-1H-pyrrole-3-carbonitrile]	> 200	> 200	> 200	> 200	> 200	> 200	> 200	> 200	> 200				
CCCCCCCCCCN1C(=O)C(C#N)=C(O)[C@@H]1CC(C)C [Compound 12b, (S)-1-decyl-4-hydroxy-5-isobutyl-2-oxo-2,5-dihydro-1H-pyrrole-3-carbonitrile]	3.12 (≈ 9.74 µM)	25 (≈ 78 µM)	50 (≈ 156 µM)	100 (≈ 312 µM)	25 (≈ 78 µM)	25 (≈ 78 µM)	25 (≈ 78 µM)	12.5 (≈ 39 µM)	> 200	152	6.1		
N#CC1=C(O)[C@H](Cc2ccccc2)N(Cc2ccccc2)C1=O [Compound 12c, (S)-1,5-dibenzyl-4-hydroxy-2-oxo-2,5-dihydro-1H-pyrrole-3-carbonitrile]	> 200	> 200	> 200	> 200	> 200	> 200	> 200	> 200	> 200				
COc1cccc(CN2C(=O)C(C#N)=C(O)[C@@H]2CC(C)C)c1 [Compound 12d, (S)-4-hydroxy-5-isobutyl-1-(3-methoxybenzyl)-2-oxo-2,5-dihydro-1H-pyrrole-3-carbonitrile]	> 200	> 200	> 200	> 200	> 200	> 200	> 200	> 200	> 200				
CC(C)C[C@H]1C(O)=C(C#N)C(=O)N1Cc1ccc(F)cc1 [Compound 12e, (S)-1-(4-fluorobenzyl)-4-hydroxy-5-isobutyl-2-oxo-2,5-dihydro-1H-pyrrole-3-carbonitrile]	> 200	> 200	> 200	> 200	> 200	> 200	> 200	> 200	> 200				
CC(C)C[C@@H]1C(O)=C(C#N)C(=O)N1Cc1ccc(F)cc1 [Compound 12f, (R)-1-(4-fluorobenzyl)-4-hydroxy-5-isobutyl-2-oxo-2,5-dihydro-1H-pyrrole-3-carbonitrile]	> 200	> 200	> 200	> 200	> 200	> 200	> 200	> 200	> 200				
N#CC1=C(O)[C@@H](Cc2ccccc2)N(Cc2ccccc2)C1=O [Compound 12g, (R)-1,5-dibenzyl-4-hydroxy-2-oxo-2,5-dihydro-1H-pyrrole-3-carbonitrile]	> 200	> 200	> 200	> 200	> 200	> 200	> 200	> 200	> 200				
CCC(C)[C@H]1C(O)=C(C#N)C(=O)N1Cc1ccco1 (stereo partly drawn) [Compound 12p, (S)-5-sec-butyl-1-(furan-2-ylmethyl)-4-hydroxy-2-oxo-2,5-dihydro-1H-pyrrole-3-carbonitrile]	> 200	3.12 (≈ 12 µM)	25 (≈ 96 µM)	50 (≈ 192 µM)	3.12 (≈ 12 µM)	> 200	> 200	12.5 (≈ 48 µM)	> 200	6400		2049.7	
CCC(C)[C@H]1C(=O)/C(=C(\C)O)C(=O)N1Cc1ccccc1 (stereo partly drawn) [Compound 13a, (S,Z)-1-benzyl-5-sec-butyl-3-(1-hydroxyethylidene)pyrrolidine-2,4-dione]	50 (≈ 174 µM)	3.12 (≈ 10.9 µM)	25 (≈ 87 µM)	50 (≈ 174 µM)	6.25 (≈ 21.7 µM)	6.25 (≈ 21.7 µM)	6.25 (≈ 21.7 µM)	6.25 (≈ 21.7 µM)	> 200	26.3	4.2		
C/C(O)=C1\C(=O)[C@H](Cc2ccccc2)N(Cc2ccccc2)C1=O [Compound 13c, (S,Z)-1,5-dibenzyl-3-(1-hydroxyethylidene)pyrrolidine-2,4-dione]	> 200	25 (≈ 77.8 µM)	25 (≈ 77.8 µM)	100 (≈ 311 µM)	100 (≈ 311 µM)	25 (≈ 77.8 µM)	12.5 (≈ 38.9 µM)	12.5 (≈ 38.9 µM)	> 200		6.1		75.7
COc1cccc(CN2C(=O)/C(=C(/C)O)C(=O)[C@@H]2CC(C)C)c1 [Compound 13d, (S,Z)-3-(1-hydroxyethylidene)-5-isobutyl-1-(3-methoxybenzyl)pyrrolidine-2,4-dione]	100 (≈ 315 µM)	25 (≈ 78.8 µM)	25 (≈ 78.8 µM)	50 (≈ 158 µM)	100 (≈ 315 µM)	25 (≈ 78.8 µM)	12.5 (≈ 39.4 µM)	12.5 (≈ 39.4 µM)	200 (≈ 630 µM)	40	3.2		
C/C(O)=C1\C(=O)[C@H](CC(C)C)N(Cc2ccc(F)cc2)C1=O [Compound 13e, (S,Z)-1-(4-fluorobenzyl)-3-(1-hydroxyethylidene)-5-isobutylpyrrolidine-2,4-dione]	100 (≈ 327 µM)	12.5 (≈ 40.9 µM)	25 (≈ 81.9 µM)	50 (≈ 164 µM)	50 (≈ 164 µM)	25 (≈ 81.9 µM)	12.5 (≈ 40.9 µM)	6.25 (≈ 20.5 µM)	100 (≈ 327 µM)	27.8	2.2		
C/C(O)=C1\C(=O)[C@@H](CC(C)C)N(Cc2ccc(F)cc2)C1=O [Compound 13f, (R,Z)-1-(4-fluorobenzyl)-3-(1-hydroxyethylidene)-5-isobutylpyrrolidine-2,4-dione]	100 (≈ 327 µM)	12.5 (≈ 40.9 µM)	12.5 (≈ 40.9 µM)	25 (≈ 81.9 µM)	50 (≈ 164 µM)	12.5 (≈ 40.9 µM)	12.5 (≈ 40.9 µM)	12.5 (≈ 40.9 µM)	100 (≈ 327 µM)	35.3	2.8		
C/C(O)=C1\C(=O)[C@@H](Cc2ccccc2)N(Cc2ccccc2)C1=O [Compound 13g, (R,Z)-1,5-dibenzyl-3-(1-hydroxyethylidene)pyrrolidine-2,4-dione]	> 200	25 (≈ 77.8 µM)	25 (≈ 77.8 µM)	50 (≈ 156 µM)	100 (≈ 311 µM)	25 (≈ 77.8 µM)	25 (≈ 77.8 µM)	25 (≈ 77.8 µM)	200 (≈ 622 µM)		3.2		80.6
CCN1C(=O)/C(=C(/C)O)C(=O)[C@@H]1Cc1ccccc1 [Compound 13h, (S,Z)-5-benzyl-1-ethyl-3-(1-hydroxyethylidene)pyrrolidine-2,4-dione]	> 200	50 (≈ 193 µM)	> 200	> 200	> 200	> 200	200 (≈ 771 µM)	100 (≈ 386 µM)	> 200				
